# Measurements as given in patent US10703755B2, “Substituted purine derivative” (SUMITOMO DAINIPPON PHARMA CO., LTD., priority 2016, dated 2020).
# Molecular target: human TLR7 (Homo sapiens (Human), UniProt Q9NYK1)
# Experiment: Test for evaluating the inhibition of the activation of human TLR7 (SEAP reporter, TLR7/NF-κB/SEAPorter HEK293 cell)
# Type: cell-based
# Conditions: R-848 200 nmol/L; for inhibitory effect against TLR7 in the test for evaluating inhibition of the activation of TLR7: SEAP activity, result in words; for IC50: SEAP reporter
# Protocol: As human TLR7 expressing cell line, HEK293 cell line was bought from IMGENEX Corporation (TLR7/NF-ηB/SEAPorter™ HEK293 cell), which is human embryonic kidney cell line and stably expresses full-length human TLR7 gene and secreted alkaline phosphatase (SEAP) reporter gene under the transcriptional control of an NE-ηB response element. The TLR7/NF-ηB/SEAPorter™ HEK293 cell was cultivated with DMEM containing 10% fetal bovine serum (FBS) and 10 μg/mL blasticidin S at 37° C. in the presence of 5% CO2. The TLR7/NF-ηB/SEAPorter™ HEK293 cell was seeded into 96-well microtiter plate at 5×10^4 cell/90 μL/well, and the place was cultivated at 37° C. in a CO2 incubator overnight.
# Each compound prepared in the Examples was evaluated by Test 1.
# Chain of human TLR7 (Q9NYK1 27-1049): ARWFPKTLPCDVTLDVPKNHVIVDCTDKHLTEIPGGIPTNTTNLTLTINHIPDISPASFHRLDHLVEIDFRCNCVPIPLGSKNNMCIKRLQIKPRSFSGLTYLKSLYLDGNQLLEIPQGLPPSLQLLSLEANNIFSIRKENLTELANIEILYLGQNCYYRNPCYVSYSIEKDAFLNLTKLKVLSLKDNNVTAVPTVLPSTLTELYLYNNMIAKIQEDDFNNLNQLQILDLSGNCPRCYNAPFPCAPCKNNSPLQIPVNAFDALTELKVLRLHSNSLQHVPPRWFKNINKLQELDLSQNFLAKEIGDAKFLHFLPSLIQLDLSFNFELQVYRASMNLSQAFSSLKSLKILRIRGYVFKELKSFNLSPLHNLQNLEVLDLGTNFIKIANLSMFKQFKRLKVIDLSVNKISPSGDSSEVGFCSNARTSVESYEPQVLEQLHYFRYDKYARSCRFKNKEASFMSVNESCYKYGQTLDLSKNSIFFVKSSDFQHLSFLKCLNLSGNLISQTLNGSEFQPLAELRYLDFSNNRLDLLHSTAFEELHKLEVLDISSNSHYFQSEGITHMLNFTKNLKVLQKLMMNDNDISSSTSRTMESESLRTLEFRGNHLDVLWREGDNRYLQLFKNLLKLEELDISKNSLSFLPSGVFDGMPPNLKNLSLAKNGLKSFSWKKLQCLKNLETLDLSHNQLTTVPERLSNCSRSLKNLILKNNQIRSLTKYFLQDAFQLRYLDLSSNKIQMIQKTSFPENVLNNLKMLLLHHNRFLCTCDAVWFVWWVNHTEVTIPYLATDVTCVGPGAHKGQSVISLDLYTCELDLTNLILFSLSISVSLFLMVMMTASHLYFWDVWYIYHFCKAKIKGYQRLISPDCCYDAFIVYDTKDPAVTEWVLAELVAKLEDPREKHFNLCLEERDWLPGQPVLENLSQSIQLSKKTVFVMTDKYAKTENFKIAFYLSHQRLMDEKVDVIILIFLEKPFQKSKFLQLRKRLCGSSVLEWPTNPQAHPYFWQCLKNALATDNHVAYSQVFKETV
Compound,inhibitory effect against TLR7 in the test for evaluating inhibition of the activation of TLR7,IC50 [nM]
CCOc1nc(C)c2nc(-c3cncc(F)c3)n(Cc3ccc(C4CN(C)CCO4)cc3F)c2n1 (stereo not shown) [Example 307],potent inhibitory effect against TLR7,57
COc1nc(C)c2nc(-c3cncc(F)c3)n(Cc3ccc(OS(C)(=O)=O)cc3F)c2n1 [Example 342],–,816
CCOc1nc(C)c2nc(-c3cncc(F)c3)n(Cc3cnn(CC4CCN(C)C4)c3)c2n1 (stereo not shown) [Example 278],potent inhibitory effect against TLR7,72
CCOc1nc(C)c2nc(-c3cncc(F)c3)n(Cc3cnn(CC4COCCN4)c3)c2n1 (stereo not shown) [Example 426],–,200
CCCCOc1nc(N)c2nc(-c3cncc(CO)c3)n(Cc3ccccc3)c2n1 [Example 20],–,22500
"CCOc1nc(N)c2nc(-c3cncc(F)c3)n(Cc3ccc(N4CCN(C)CC4)cc3)c2n1 [Example 68, 2-Ethoxy-8-(5-fluoropyridin-3-yl)-9-[4-(4-methylpiperazin-1-yl)benzyl]-9H-purine-6-amine]",–,180
"COc1nc(C)c2nc(-c3cncc(F)c3)n(Cc3ccc(C4CN5CCC4CC5)cc3F)c2n1 (single isomer, unassigned) [Example 393, 9-[4-(1-azabicyclo[2.2.2]oct-3-yl)-2-fluorobenzyl]-8-(5-fluoropyridin-3-yl)-2-methoxy-6-methyl-9H-purine]",–,1
"COc1nc(C)c2nc(-c3cncnc3)n(Cc3ccc(O[C@@H]4CN5CCC4CC5)cc3F)c2n1 [Example 323, 9-{4-[(3S)-1-azabicyclo[2.2.2]oct-3-yloxy]-2-fluorobenzyl}-2-methoxy-6-methyl-8-(pyrimidin-5-yl)-9H-purine]",potent inhibitory effect against TLR7,70
CCOc1nc(C)c2nc(-c3cncc(F)c3)n(Cc3cnc(CC4CCNCC4)cc3OC)c2n1 [Example 430],–,549
COc1nc(C)c2nc(-c3cncc(F)c3)n(Cc3cc(Br)ccc3F)c2n1 [Example 326],–,389
CCOc1nc(C)c2nc(-c3cncc(F)c3)n(Cc3cnn(CC4CCN(C)C4)c3)c2n1 (stereo not shown) [Example 279],potent inhibitory effect against TLR7,40
"CCOc1nc(N)c2nc(-c3cncc(F)c3)n(Cc3ccc(C4CCN(C(=O)CN(C)C)CC4)cc3)c2n1 [Example 148, 1-[4-(4-{[6-Amino-2-ethoxy-8-(5-fluoropyridin-3-yl)-9H-purin-9-yl]methyl}phenyl)piperidin-1-yl]-2-(dimethylamino)ethanone]",potent inhibitory effect against TLR7,16
"CCOc1nc(N)c2nc(-c3cncc(F)c3)n(Cc3ccc(CN(C)C)cc3)c2n1 [Example 80, 9-{4-[(Dimethylamino)methyl]benzyl}-2-ethoxy-8-(5-fluoropyridin-3-yl)-9H-purine-6-amine]",–,540
"CCOc1nc(N)c2nc(-c3cncc(F)c3)n(Cc3ccc(N(C)CCN(C)C)nc3)c2n1 [Example 64, N-(5-{[6-Amino-2-ethoxy-8-(5-fluoropyridin-3-yl)-9H-purin-9-yl]methyl}pyridin-2-yl)-N,N′,N′-trimethylethane-1,2-diamine]",–,680
CCOc1nc(C)c2nc(-c3cncc(F)c3)n(Cc3ccc(C4CN5CCC4CC5)nc3C#N)c2n1 (stereo not shown) [Example 382],–,575
CCOc1nc(C)c2nc(-c3cncc(F)c3)n(Cc3cnn(CC4CCCNC4)c3)c2n1 (stereo not shown) [Example 269],–,19
CCOc1nc(N)c2nc(-c3cncc(F)c3)n(Cc3ccc(CN4CCCC4)cc3)c2n1 [Example 104],–,760
CCOc1nc(N)c2nc(-c3cncc(F)c3)n(Cc3ccc(O[C@H]4CN5CCC4CC5)cc3)c2n1 [Example 67],potent inhibitory effect against TLR7,51
CCCCOc1nc(N)c2nc(-c3cncc(Cl)c3)n(Cc3ccccc3)c2n1 [Example 17],–,1100
CCOc1nc(C)c2nc(-c3cncc(F)c3)n(Cc3cnc(C4CN5CCC4CC5)cc3C)c2n1 (stereo not shown) [Example 330],–,213
CCCCOc1nc(N)c2nc(-c3cncnc3)n(Cc3ccccc3)c2n1 [Example 5],–,1400
CCOc1nc(N)c2nc(-c3cncc(F)c3)n(Cc3ccc(CN4CC(F)(F)C4)cc3)c2n1 [Example 101],potent inhibitory effect against TLR7,56
"COc1nc(C)c2nc(-c3cncc(F)c3)n(Cc3ccc(CN4C[C@@H]5C[C@H]4CN5C)cc3)c2n1 [Example 107, 8-(5-fluoropyridin-3-yl)-2-methoxy-6-methyl-9-(4-{[(1S,4S)-5-methyl-2,5-diazabicyclo[2.2.1]hept-2-yl]methyl}benzyl)-9H-purine]",potent inhibitory effect against TLR7,27
CCOc1nc(C)c2nc(-c3cncc(F)c3)n(Cc3cnn(CCN(C)C)c3)c2n1 [Example 244],–,445

Compound,inhibitory effect against TLR7 in the test for evaluating inhibition of the activation of TLR7,IC50 [nM]
COCCOc1nc(C)c2nc(-c3cncc(F)c3)n(Cc3ccc(CN4CCN(C)CC4)cc3)c2n1 [Example 115],–,100
CN(C)Cc1ccc(Cn2c(-c3cncc(F)c3)nc3c(N)nc(OCC4CC4)nc32)cc1 [Example 160],–,1300
"COc1nc(C)c2nc(-c3cncc(F)c3)n(Cc3ccc(OC4CCN(C)CC4)cc3F)c2n1 [Example 411, 9-{2-fluoro-4-[(1-methylpiperidin-4-yl)oxy]benzyl}-8-(5-fluoropyridin-3-yl)-2-methoxy-6-methyl-9H-purine]",potent inhibitory effect against TLR7,26
CCOc1nc(N)c2nc(-c3cncc(F)c3)n(Cc3ccc(CN4C[C@@H]5C[C@H]4CN5)cc3)c2n1 [Example 124],–,220
COCCOc1nc(N)c2nc(-c3cncc(C#N)c3)n(Cc3ccc(CN(C)C)cc3)c2n1 [Example 31],–,7700
CCOc1nc(N)c2nc(-c3cncc(F)c3)n(Cc3ccc(C(=O)N4CCC(C)CC4)cc3)c2n1 [Example 144],–,2600
CCOc1nc(N)c2nc(-c3cncc(F)c3)n(Cc3ccc(CN4CCOCC4)cc3)c2n1 [Example 97],–,100
CCOc1nc(N)c2nc(-c3cncc(F)c3)n(Cc3ccc(CN4CC(C#N)C4)cc3)c2n1 [Example 103],–,1600
COc1nc(C)c2nc(-c3cncc(F)c3)n(Cc3ccc(CC4CCNCC4)cc3F)c2n1 [Example 432],potent inhibitory effect against TLR7,62
CCOc1nc(C)c2nc(-c3cncc(F)c3)n(Cc3cnc(C4=CN5CCC4CC5)cc3OC)c2n1 [Example 355],–,1600
"CCOc1nc(N)c2nc(-c3cncc(F)c3)n(Cc3ccc([C@H]4CN5CCC4CC5)cc3)c2n1 [Example 176, 9-{4-[(3S)-1-azabicyclo[2.2.2]oct-3-yl]benzyl}-2-ethoxy-8-(5-fluoropyridin-3-yl)-9H-purine-6-amine]",potent inhibitory effect against TLR7,11
"CCOc1nc(N)c2nc(-c3cncc(F)c3)n(Cc3ccc(CN4C[C@@H]5C[C@H]4CN5C(C)=O)cc3)c2n1 [Example 126, 1-[(1S,4S)-5-(4-{[6-Amino-2-ethoxy-8-(5-fluoropyridin-3-yl)-9H-purin-9-yl]methyl}benzyl)-2,5-diazabicyclo[2.2.1]hept-2-yl]ethanone]",–,150
CCOc1nc(C)c2nc(-c3cncc(F)c3)n(Cc3ccc(CN4CCN(C)CC4)cc3)c2n1 [Example 262],potent inhibitory effect against TLR7,27
COc1nc(N)c2nc(-c3cncc(F)c3)n(Cc3ccc(CN(C)C)cc3)c2n1 [Example 150],–,500
COc1nc(C)c2nc(-c3cncc(C#N)c3)n(Cc3ccc(C4CN5CCC4CC5)cc3F)c2n1 (stereo not shown) [Example 340],potent inhibitory effect against TLR7,26
CCOc1nc(C)c2nc(-c3cncc(F)c3)n(Cc3cnn(CCCN4CCOCC4)c3)c2n1 [Example 249],–,100
CCOc1nc(C)c2nc(-c3cncc(F)c3)n(Cc3ccc(C4CN5CCC4CC5)cc3F)c2n1 (stereo not shown) [Example 172],potent inhibitory effect against TLR7,3
"COc1nc(C)c2nc(-c3cccnc3)n(Cc3ccc(C4CCN(C)CC4)cc3F)c2n1 [Example 292, 9-[2-fluoro-4-(1-methylpiperidin-4-yl)benzyl]-2-methoxy-6-methyl-8-(pyridin-3-yl)-9H-purine]",potent inhibitory effect against TLR7,39
CCCCOc1nc(N)c2nc(-c3cnc(N)nc3)n(Cc3ccccc3)c2n1 [Example 6],–,9600
CCOc1nc(C)c2nc(-c3cncc(F)c3)n(Cc3ccc(C4=CN5CCC4CC5)cc3OC)c2n1 [Example 354],–,36
CCOc1nc(C)c2nc(-c3cncc(F)c3)n(Cc3ccc(CN4CC(C#N)C4)cc3)c2n1 [Example 116],–,160
CCOc1nc(N)c2nc(-c3cncc(F)c3)n(Cc3cccc(C#N)c3)c2n1 [Example 237],–,2020
COc1nc(C)c2nc(-c3cncc(F)c3)n(Cc3ccc(C4CCNCC4)cc3F)c2n1 [Example 431],potent inhibitory effect against TLR7,8
CCOc1nc(N)c2nc(-c3cncc(F)c3)n(Cc3ccc(-c4cncc(F)c4)cc3)c2n1 [Example 45],–,950
